{"source": "patent US11524966B1", "about": "(Valo Early Discovery, Inc., priority 2017, dated 2022)", "data": [{"target": "T1, USP28 (USP28-5(1-1077)-TEV-6*His; LifeSensors) (Homo sapiens, UniProt Q96RU2)", "T1 construct": "construct USP28 (USP28-5(1-1077)-TEV-6*His; LifeSensors); TEV cleavage site (C); 6xHis (C); purchased LifeSensors", "T1 sequence (Q96RU2 1-1077)": "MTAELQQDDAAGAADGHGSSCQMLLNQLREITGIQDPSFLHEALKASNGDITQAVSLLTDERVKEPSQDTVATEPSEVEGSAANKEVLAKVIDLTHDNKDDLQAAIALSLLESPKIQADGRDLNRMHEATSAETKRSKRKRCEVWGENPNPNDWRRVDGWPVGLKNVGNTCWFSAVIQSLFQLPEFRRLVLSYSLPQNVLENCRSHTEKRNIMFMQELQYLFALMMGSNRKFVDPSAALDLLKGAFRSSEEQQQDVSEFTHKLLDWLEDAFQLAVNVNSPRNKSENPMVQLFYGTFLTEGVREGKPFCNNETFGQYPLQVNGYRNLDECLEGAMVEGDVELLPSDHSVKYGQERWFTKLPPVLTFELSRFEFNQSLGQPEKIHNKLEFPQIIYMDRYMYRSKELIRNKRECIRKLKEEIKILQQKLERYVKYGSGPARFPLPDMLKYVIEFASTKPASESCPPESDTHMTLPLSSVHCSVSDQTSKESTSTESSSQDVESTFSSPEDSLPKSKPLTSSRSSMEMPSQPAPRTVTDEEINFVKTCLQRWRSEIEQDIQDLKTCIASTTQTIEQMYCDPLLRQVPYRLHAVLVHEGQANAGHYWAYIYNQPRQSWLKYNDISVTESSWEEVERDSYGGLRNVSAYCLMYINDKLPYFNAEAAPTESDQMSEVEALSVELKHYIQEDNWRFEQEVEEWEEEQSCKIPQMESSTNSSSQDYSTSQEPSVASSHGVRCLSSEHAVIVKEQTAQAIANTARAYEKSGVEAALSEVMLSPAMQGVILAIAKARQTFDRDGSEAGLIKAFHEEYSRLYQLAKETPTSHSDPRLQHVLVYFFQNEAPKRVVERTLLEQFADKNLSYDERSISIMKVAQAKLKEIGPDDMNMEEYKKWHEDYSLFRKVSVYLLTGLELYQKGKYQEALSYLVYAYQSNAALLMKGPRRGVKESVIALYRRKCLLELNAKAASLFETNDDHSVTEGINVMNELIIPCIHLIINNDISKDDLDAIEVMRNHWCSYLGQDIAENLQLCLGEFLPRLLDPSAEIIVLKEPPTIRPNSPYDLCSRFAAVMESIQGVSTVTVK", "experiment": "Ubiquitin-Rhodamine 110 Assay for USP28 Activity, Example A-1(b)", "assay_type": "biochemical", "settings": "Ubiquitin-Rhodamine 110 assay, Example A-1(b)", "procedure,_shortened": "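Single-point screening used 10 μM compound with 90 min room-temperature incubation; follow-up dose-responses (25 μM top, 3-fold) used 75 pM USP28 1-1077 construct, 30 min compound preincubation, 25 nM Ub-Rh110, 20 min reaction, citric acid quench. Rh110 fluorescence normalised to no-enzyme and DMSO controls; IC50 from 4-parameter logistic fit.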", "values": [{"molecule": "Cc1ccc2c(N)c(C(=O)N[C@H]3COc4cc(N5C[C@H](N)[C@@H](F)C5)ccc4C3)sc2n1", "note": "[Example 3-7, 3-amino-N-((R)-7-((3S,4S)-3-amino-4-fluoropyrrolidin-1-yl)chroman-3-yl)-6-methylthieno[2,3-b]pyridine-2-carboxamide]", "USP28 A-1(b) IC50 range": "++ (0.2-2 μM)"}, {"molecule": "Cc1ccc2c(N)c(C(=O)N[C@H]3COc4cc(N5C[C@@H](N)[C@H](F)C5)ccc4C3)sc2n1", "note": "[Example 3-8, 3-amino-N-((R)-7-((3R,4R)-3-amino-4-fluoropyrrolidin-1-yl)chroman-3-yl)-6-methylthieno[2,3-b]pyridine-2-carboxamide]", "USP28 A-1(b) IC50 range": "++ (0.2-2 μM)"}, {"molecule": "Cc1ccc2c(N)c(C(=O)N[C@H]3COc4cc(N5CCN[C@@H](C(F)(F)F)C5)ccc4C3)sc2n1", "note": "[Example 3-11, 3-amino-6-methyl-N-((R)-7-((R)-3-(trifluoromethyl)piperazin-1-yl)chroman-3-yl)thieno[2,3-b]pyridine-2-carboxamide]", "USP28 A-1(b) IC50 range": "++ (0.2-2 μM)"}, {"molecule": "Cc1ccc2c(N)c(C(=O)N[C@H]3COc4cc(N5CCN[C@H](C(F)(F)F)C5)ccc4C3)sc2n1", "note": "[Example 3-12, 3-amino-6-methyl-N-((R)-7-((S)-3-(trifluoromethyl)piperazin-1-yl)chroman-3-yl)thieno[2,3-b]pyridine-2-carboxamide]", "USP28 A-1(b) IC50 range": "++ (0.2-2 μM)"}, {"molecule": "Cc1ccc2c(N)c(C(=O)N[C@H]3COc4cc(N5CC[C@]6(CCCNC6)C5)ccc4C3)sc2n1", "note": "[Example 3-13, N-((R)-7-((S)-2,7-diazaspiro[4.5]decan-2-yl)chroman-3-yl)-3-amino-6-methylthieno[2,3-b]pyridine-2-carboxamide]", "USP28 A-1(b) IC50 range": "+++ (0.05-0.2 μM)"}, {"molecule": "Cc1ccc2c(N)c(C(=O)N[C@H]3COc4cc(N5CC[C@@]6(CCCNC6)C5)ccc4C3)sc2n1", "note": "[Example 3-14, N-((R)-7-((R)-2,7-diazaspiro[4.5]decan-2-yl)chroman-3-yl)-3-amino-6-methylthieno[2,3-b]pyridine-2-carboxamide]", "USP28 A-1(b) IC50 range": "+++ (0.05-0.2 μM)"}, {"molecule": "Cc1ccc2c(N)c(C(=O)N[C@H]3COc4cc(N5CCC(F)(F)CC5)ccc4C3)sc2n1", "note": "[Example 5-1, (R)-3-amino-N-(7-(4,4-difluoropiperidin-1-yl)chroman-3-yl)-6-methylthieno[2,3-b]pyridine-2-carboxamide]", "USP28 A-1(b) IC50 range": "++++ (0.001-0.05 μM)"}, {"molecule": "Cc1ccc2c(N)c(C(=O)N[C@H]3COc4cc(N5CCS(=O)(=O)CC5)ccc4C3)sc2n1", "note": "[Example 5-2, (R)-3-amino-N-(7-(1,1-dioxidothiomorpholino)chroman-3-yl)-6-methylthieno[2,3-b]pyridine-2-carboxamide]", "USP28 A-1(b) IC50 range": "+++ (0.05-0.2 μM)"}, {"molecule": "Cc1ccc2c(N)c(C(=O)N[C@H]3COc4cc(N5CC(O)(C(F)(F)F)C5)ccc4C3)sc2n1", "note": "[Example 5-3, (R)-3-amino-N-(7-(3-hydroxy-3-(trifluoromethyl)azetidin-1-yl)chroman-3-yl)-6-methylthieno[2,3-b]pyridine-2-carboxamide]", "USP28 A-1(b) IC50 range": "+++ (0.05-0.2 μM)"}, {"molecule": "Cc1ccc2c(N)c(C(=O)N[C@H]3COc4cc(N5CC6COCC(C5)C6(F)F)ccc4C3)sc2n1", "note": "[Example 5-4, 3-amino-N-((3R)-7-(9,9-difluoro-3-oxa-7-azabicyclo[3.3.1]nonan-7-yl)chroman-3-yl)-6-methylthieno[2,3-b]pyridine-2-carboxamide]", "USP28 A-1(b) IC50 range": "+++ (0.05-0.2 μM)"}, {"molecule": "Cc1ccc2c(N)c(C(=O)N[C@H]3COc4cc(N5CCC(C(=O)O)CC5)ccc4C3)sc2n1", "note": "[Example 6-1, (R)-1-(3-(3-Amino-6-methylthieno[2,3-b]pyridine-2-carboxamido)chroman-7-yl)piperidine-4-carboxylic Acid]", "USP28 A-1(b) IC50 range": "++ (0.2-2 μM)"}, {"molecule": "Cc1ccc2c(N)c(C(=O)N[C@H]3COc4cc(N5CC[C@@H](C(=O)O)C5)ccc4C3)sc2n1", "note": "[Example 6-2, (R)-1-((R)-3-(3-amino-6-methylthieno[2,3-b]pyridine-2-carboxamido)chroman-7-yl)pyrrolidine-3-carboxylic acid]", "USP28 A-1(b) IC50 range": "++ (0.2-2 μM)"}, {"molecule": "Cc1ccc2c(N)c(C(=O)N[C@H]3COc4cc(N5CC[C@H](C(=O)O)C5)ccc4C3)sc2n1", "note": "[Example 6-3, (S)-1-((R)-3-(3-amino-6-methylthieno[2,3-b]pyridine-2-carboxamido)chroman-7-yl)pyrrolidine-3-carboxylic acid]", "USP28 A-1(b) IC50 range": "++ (0.2-2 μM)"}, {"molecule": "Cc1cnc2c(N)c(C(=O)N[C@H]3CCc4cc(N5CC(C(=O)O)C5)ccc4C3)sc2n1", "note": "[Example 6-4, (S)-1-(6-(7-amino-3-methylthieno[2,3-b]pyrazine-6-carboxamido)-5,6,7,8-tetrahydronaphthalen-2-yl)azetidine-3-carboxylic acid]", "USP28 A-1(b) IC50 range": "+ (>2 μM)"}, {"molecule": "Cc1ccc2c(N)c(C(=O)N[C@H]3COc4cc(N5CCC(O)CC5)ccc4C3)sc2n1", "note": "[Example 7-1, (R)-3-amino-N-(7-(4-hydroxypiperidin-1-yl)chroman-3-yl)-6-methylthieno[2,3-b]pyridine-2-carboxamide]", "USP28 A-1(b) IC50 range": "+++ (0.05-0.2 μM)"}, {"molecule": "COC[C@@H]1CN(c2ccc3c(n2)OC[C@H](NC(=O)c2sc4nc(C)cc(C)c4c2N)C3)C[C@@H]1N", "note": "[Example 348, 3-amino-N-[(3R)-7-[(3R,4R)-3-amino-4-(methoxymethyl)pyrrolidin-1-yl]-2H,3H,4H-pyrano[2,3-b]pyridin-3-yl]-4,6-dimethylthieno[2,3-b]pyridine-2-carboxamide]", "USP28 A-1(b) IC50 range": "+ (>2 μM)"}, {"molecule": "Cc1ccc2c(N)c(C(=O)N[C@H]3CCc4nc(N5C[C@@H](N)[C@H](C(F)(F)F)C5)ccc4C3)sc2n1", "note": "[Example 364, 3-amino-N-[(6S)-2-[(3S,4R)-3-amino-4-(trifluoromethyl)pyrrolidin-1-yl]-5,6,7,8-tetrahydroquinolin-6-yl]-6-methylthieno[2,3-b]pyridine-2-carboxamide]", "USP28 A-1(b) IC50 range": "+ (>2 μM)"}, {"molecule": "Cc1cnc2c(N)c(C(=O)N[C@H]3CCc4cc(N5CC6CNCC(C5)O6)ccc4C3)sc2n1", "note": "[Example 448, N-((2S)-6-(9-oxa-3,7-diazabicyclo[3.3.1]nonan-3-yl)-1,2,3,4-tetrahydronaphthalen-2-yl)-7-amino-3-methylthieno[2,3-b]pyrazine-6-carboxamide]", "USP28 A-1(b) IC50 range": "++ (0.2-2 μM)"}, {"molecule": "Cc1cnc2c(N)c(C(=O)N[C@@H]3CCc4cc(N5CC6CNCC(C5)O6)ccc4C3)sc2n1", "note": "[Example 450, N-((2R)-6-(9-oxa-3,7-diazabicyclo[3.3.1]nonan-3-yl)-1,2,3,4-tetrahydronaphthalen-2-yl)-7-amino-3-methylthieno[2,3-b]pyrazine-6-carboxamide]", "USP28 A-1(b) IC50 range": "+ (>2 μM)"}, {"molecule": "Cc1ccc2c(N)c(C(=O)N[C@@H]3CCc4cc(N5CC6CNCC(C5)O6)ccc4C3)sc2n1", "note": "[Example 451, N-((2R)-6-(9-oxa-3,7-diazabicyclo[3.3.1]nonan-3-yl)-1,2,3,4-tetrahydronaphthalen-2-yl)-3-amino-6-methylthieno[2,3-b]pyridine-2-carboxamide]", "USP28 A-1(b) IC50 range": "++ (0.2-2 μM)"}, {"molecule": "Cc1cnc2c(N)c(C(=O)N[C@@H]3CCc4cc(N5CCCNCC5)ccc4C3)sc2n1", "note": "[Example 452, (R)-N-(6-(1,4-diazepan-1-yl)-1,2,3,4-tetrahydronaphthalen-2-yl)-7-amino-3-methylthieno[2,3-b]pyrazine-6-carboxamide]", "USP28 A-1(b) IC50 range": "+ (>2 μM)"}, {"molecule": "Cc1cnc2c(N)c(C(=O)N[C@H]3CCc4cc(N5CCCNCC5)ccc4C3)sc2n1", "note": "[Example 455, (S)-N-(6-(1,4-diazepan-1-yl)-1,2,3,4-tetrahydronaphthalen-2-yl)-7-amino-3-methylthieno[2,3-b]pyrazine-6-carboxamide]", "USP28 A-1(b) IC50 range": "++ (0.2-2 μM)"}, {"molecule": "Cc1cnc2c(N)c(C(=O)N[C@H]3CCc4cc(N5CC6COCC(C5)N6)ccc4C3)sc2n1", "note": "[Example 456, N-((2S)-6-(3-oxa-7,9-diazabicyclo[3.3.1]nonan-7-yl)-1,2,3,4-tetrahydronaphthalen-2-yl)-7-amino-3-methylthieno[2,3-b]pyrazine-6-carboxamide]", "USP28 A-1(b) IC50 range": "++ (0.2-2 μM)"}, {"molecule": "CC(=O)N1CCCc2cc(C(=O)N[C@H]3COc4cc(N5CCNCC5)ccc4C3)ccc21", "note": "[Example 459, (R)-1-acetyl-N-(7-(piperazin-1-yl)chroman-3-yl)-1,2,3,4-tetrahydroquinoline-6-carboxamide]", "USP28 A-1(b) IC50 range": "+ (>2 μM)"}]}]}
